ChEMBL document CHEMBL4627352, “New acrylamide-sulfisoxazole conjugates as dihydropteroate synthase inhibitors” (Bioorg Med Chem, 2020)
≈ marks a conversion by molar mass, not a printed value. Calls of active or inactive are those of the source. The rule behind the calls is not given here.

Legend:
[1] = tested on: Streptococcus pneumoniae; assay: Inhibition of DHPS in Streptococcus pneumoniae assessed as antibacterial activity by measuring inhibition zone at 5 mg/mL incubated for 24 hrs by disk diffusion method
[2] = tested on: Bacillus subtilis; assay: Inhibition of DHPS in Bacillus subtilis assessed as antibacterial activity by measuring inhibition zone at 5 mg/mL incubated for 24 hrs by disk diffusion method
[3] = tested on: Staphylococcus epidermidis; assay: Inhibition of DHPS in Staphylococcus epidermidis assessed as antibacterial activity by measuring inhibition zone at 5 mg/mL incubated for 24 hrs by disk diffusion method
[4] = tested on: Escherichia coli; assay: Inhibition of DHPS in Escherichia coli assessed as antibacterial activity by measuring inhibition zone at 5 mg/mL incubated for 24 hrs by disk diffusion method
[5] = tested on: Proteus vulgaris; assay: Inhibition of DHPS in Proteus vulgaris assessed as antibacterial activity by measuring inhibition zone at 5 mg/mL incubated for 24 hrs by disk diffusion method
[6] = tested on: Klebsiella pneumoniae; assay: Inhibition of DHPS in Klebsiella pneumoniae assessed as antibacterial activity by measuring inhibition zone at 5 mg/mL incubated for 24 hrs by disk diffusion method
[7] = tested on: Streptococcus pneumoniae; assay: Inhibition of DHPS in Streptococcus pneumoniae assessed as antibacterial activity by measuring inhibition of bacterial growth incubated for 24 hrs by microbroth dilution method
[8] = tested on: Bacillus subtilis; assay: Inhibition of DHPS in Bacillus subtilis assessed as antibacterial activity by measuring inhibition of bacterial growth incubated for 24 hrs by microbroth dilution method
[9] = tested on: Staphylococcus epidermidis; assay: Inhibition of DHPS in Staphylococcus epidermidis assessed as antibacterial activity by measuring inhibition of bacterial growth incubated for 24 hrs by microbroth dilution method
[10] = tested on: Escherichia coli; assay: Inhibition of DHPS in Escherichia coli assessed as antibacterial activity by measuring inhibition of bacterial growth incubated for 24 hrs by microbroth dilution method
[11] = tested on: Proteus vulgaris; assay: Inhibition of DHPS in Proteus vulgaris assessed as antibacterial activity by measuring inhibition of bacterial growth incubated for 24 hrs by microbroth dilution method
[12] = tested on: Klebsiella pneumoniae; assay: Inhibition of DHPS in Klebsiella pneumoniae assessed as antibacterial activity by measuring inhibition of bacterial growth incubated for 24 hrs by microbroth dilution method
[13] = tested on: Aspergillus fumigatus; assay: Inhibition of DHPS in Aspergillus fumigatus assessed as antifungal activity by measuring inhibition zone at 5 mg/mL incubated for 48 hrs by disk diffusion method
[14] = tested on: Syncephalastrum racemosum; assay: Inhibition of DHPS in Syncephalastrum racemosum assessed as antifungal activity by measuring inhibition zone at 5 mg/mL incubated for 48 hrs by disk diffusion method
[15] = tested on: Geotrichum candidum; assay: Inhibition of DHPS in Geotrichum candidum assessed as antifungal activity by measuring inhibition zone at 5 mg/mL incubated for 48 hrs by disk diffusion method
[16] = tested on: Aspergillus fumigatus; assay: Inhibition of DHPS in Aspergillus fumigatus assessed as antifungal activity by measuring inhibition of fungal growth incubated for 48 hrs by microbroth dilution method
[17] = tested on: Syncephalastrum racemosum; assay: Inhibition of DHPS in Syncephalastrum racemosum assessed as antifungal activity by measuring inhibition of fungal growth incubated for 48 hrs by microbroth dilution method
[18] = tested on: Geotrichum candidum; assay: Inhibition of DHPS in Geotrichum candidum assessed as antifungal activity by measuring inhibition of fungal growth incubated for 48 hrs by microbroth dilution method
[19] = tested on: Escherichia coli ATCC 25922; assay: Inhibition of DHPS in Escherichia coli ATCC 25922 assessed as inhibition of bacterial growth incubated for 24 hrs in presence of folate precursor, pABA by microbroth dilution method
[20] = tested on: Escherichia coli ATCC 25922; assay: Inhibition of DHPS in Escherichia coli ATCC 25922 assessed as inhibition of bacterial growth incubated for 24 hrs in presence of folate dependent metabolite, methionine by microbroth dilution method
[21] = tested on: Aspergillus fumigatus; assay: Potency index, ratio of sulfisoxazole MIC to compound MIC for Aspergillus fumigatus assessed as inhibition of DHPS-mediated fungal growth incubated for 48 hrs by microbroth dilution method
[22] = tested on: Staphylococcus epidermidis; assay: Potency index, ratio of sulfisoxazole MIC to compound MIC for Staphylococcus epidermidis assessed as inhibition of DHPS-mediated bacterial growth incubated for 24 hrs by microbroth dilution method
[23] = tested on: Klebsiella pneumoniae; assay: Potency index, ratio of sulfisoxazole MIC to compound MIC for Klebsiella pneumoniae assessed as inhibition of DHPS-mediated bacterial growth incubated for 24 hrs by microbroth dilution method
[24] = tested on: Geotrichum candidum; assay: Potency index, ratio of sulfisoxazole MIC to compound MIC for Geotrichum candidum assessed as inhibition of DHPS-mediated fungal growth incubated for 48 hrs by microbroth dilution method
[25] = tested on: hTERT-BJ; assay: Cytotoxicity against human hTERT-BJ1 cells at 50 uM by acid phosphatase assay relative to control; format: cell-based
[26] = tested on: Syncephalastrum racemosum; assay: Potency index, ratio of amphotericin B MIC to compound MIC for Syncephalastrum racemosum assessed as inhibition of DHPS-mediated fungal growth incubated for 48 hrs by microbroth dilution method
[27] = tested on: Bacillus subtilis; assay: Potency index, ratio of ampicillin MIC to compound MIC for Bacillus subtilis assessed as inhibition of DHPS-mediated bacterial growth incubated for 24 hrs by microbroth dilution method
[28] = tested on: Escherichia coli; assay: Potency index, ratio of sulfisoxazole MIC to compound MIC for Escherichia coli assessed as inhibition of DHPS-mediated bacterial growth incubated for 24 hrs by microbroth dilution method
[29] = tested on: Syncephalastrum racemosum; assay: Potency index, ratio of sulfisoxazole MIC to compound MIC for Syncephalastrum racemosum assessed as inhibition of DHPS-mediated fungal growth incubated for 48 hrs by microbroth dilution method
[30] = tested on: Escherichia coli; assay: Potency index, ratio of gentamycin MIC to compound MIC for Escherichia coli assessed as inhibition of DHPS-mediated bacterial growth incubated for 24 hrs by microbroth dilution method

Structure (SMILES) | inhibition zone (IZ) [1] [mm] | inhibition zone (IZ) [2] [mm] | inhibition zone (IZ) [3] [mm] | inhibition zone (IZ) [4] [mm] | inhibition zone (IZ) [5] | inhibition zone (IZ) [6] [mm] | MIC [7] [µg/mL] | MIC [8] [µg/mL] | MIC [9] [µg/mL] | MIC [10] [µg/mL] | MIC [11] [µg/mL] | MIC [12] [µg/mL] | inhibition zone (IZ) [13] [mm] | inhibition zone (IZ) [14] [mm] | inhibition zone (IZ) [15] [mm] | MIC [16] [µg/mL] | MIC [17] [µg/mL] | MIC [18] [µg/mL] | inhibition [19] | inhibition [20] | further results
CN/C(S)=C(/C#N)C(=O)Nc1ccc(S(=O)(=O)Nc2onc(C)c2C)cc1 | 20.3 | 22.4 | 20.8 | 20.6 | 18.3 mm | 22.6 | 3.9 (≈ 9.57 µM) | 0.98 (≈ 2.41 µM) | 1.95 (≈ 4.79 µM) | 1.95 (≈ 4.79 µM) | 7.81 (≈ 19.2 µM) | 0.98 (≈ 2.41 µM) | 18.6 | 17.2 | 18.9 | 3.9 (≈ 9.57 µM) | 15.6 (≈ 38.4 µM) | 3.9 (≈ 9.57 µM) | inactive | inactive | Ratio [21]: 4; Ratio [22]: 4; Ratio [23]: 3; Ratio [24]: 2
CN/C(S[C@@H]1O[C@H](COC(C)=O)[C@H](OC(C)=O)[C@H](OC(C)=O)[C@H]1OC(C)=O)=C(/C#N)C(=O)Nc1ccc(S(=O)(=O)Nc2onc(C)c2C)cc1 | 17.3 | 16.8 | 15.4 | 16.3 | 11.8 mm | 17.1 | 15.6 (≈ 21.2 µM) | 15.6 (≈ 21.2 µM) | 62.5 (≈ 84.7 µM) | 15.6 (≈ 21.2 µM) | – | 31.2 (≈ 42.4 µM) | 16.3 | 15.1 | 16.9 | 31.2 (≈ 42.4 µM) | 62.5 (≈ 84.7 µM) | 62.5 (≈ 84.7 µM) | inactive | inactive | Activity [25]: 26%; Ratio [21]: 1 to 3; Ratio [29]: 1 to 3
C=CCN/C(S[C@@H]1O[C@H](COC(C)=O)[C@H](OC(C)=O)[C@H](OC(C)=O)[C@H]1OC(C)=O)=C(/C#N)C(=O)Nc1ccc(S(=O)(=O)Nc2onc(C)c2C)cc1 | 19.3 | 20.8 | 17.1 | 18.3 | 15.2 mm | 21.2 | 3.9 (≈ 5.11 µM) | 0.98 (≈ 1.28 µM) | 15.6 (≈ 20.5 µM) | 7.81 (≈ 10.2 µM) | 62.5 (≈ 81.8 µM) | 0.98 (≈ 1.28 µM) | 18.3 | 17.2 | 20.2 | 7.81 (≈ 10.2 µM) | 15.6 (≈ 20.5 µM) | 3.9 (≈ 5.11 µM) | inactive | inactive | Activity [25]: 28.6%; Ratio [21]: 1 to 3; Ratio [23]: 4; Ratio [28]: 3; Ratio [24]: 2; Ratio [29]: 1 to 3
CCS/C(NC)=C(\C#N)C(=O)Nc1ccc(S(=O)(=O)Nc2onc(C)c2C)cc1 | 20.2 | 21.2 | 20.9 | 18.2 | 16.4 mm | 21.3 | 3.9 (≈ 8.95 µM) | 0.98 (≈ 2.25 µM) | 1.95 (≈ 4.48 µM) | 7.81 (≈ 17.9 µM) | 31.2 (≈ 71.8 µM) | 1.95 (≈ 4.48 µM) | 17.1 | 19.9 | 18.3 | 15.6 (≈ 35.9 µM) | 3.9 (≈ 8.95 µM) | 7.81 (≈ 17.9 µM) | inactive | inactive | Activity [25]: 2.7%; Ratio [26]: 2
CCN/C(S[C@@H]1O[C@H](COC(C)=O)[C@@H](OC(C)=O)[C@H](OC(C)=O)[C@H]1OC(C)=O)=C(/C#N)C(=O)Nc1ccc(S(=O)(=O)Nc2onc(C)c2C)cc1 | 25.3 | 27.5 | 24.7 | 21.3 | 21.4 mm | 18.8 | 3.9 (≈ 5.19 µM) | 1.95 (≈ 2.59 µM) | 3.9 (≈ 5.19 µM) | 7.81 (≈ 10.4 µM) | 7.81 (≈ 10.4 µM) | 0.98 (≈ 1.3 µM) | 24.2 | 21.3 | 22.1 | 3.9 (≈ 5.19 µM) | 15.6 (≈ 20.8 µM) | 0.98 (≈ 1.3 µM) | inactive | inactive | Ratio [21]: 4 to 6; Ratio [24]: 3 to 5
C=CCN/C(SCC)=C(/C#N)C(=O)Nc1ccc(S(=O)(=O)Nc2onc(C)c2C)cc1 | 24.9 | 26.8 | 24.2 | 21.8 | 20.7 mm | 24.7 | 0.12 (≈ 0.26 µM) | 0.12 (≈ 0.26 µM) | 0.25 (≈ 0.542 µM) | 0.98 (≈ 2.12 µM) | 3.9 (≈ 8.45 µM) | 0.25 (≈ 0.542 µM) | 22.9 | 22.4 | 22.1 | 0.49 (≈ 1.06 µM) | 0.98 (≈ 2.12 µM) | 1.95 (≈ 4.22 µM) | inactive | inactive | Ratio [26]: 3; Ratio [27]: 2; Ratio [30]: 2

More lines, in order of falling MIC [7], values ahead:

inhibition zone (IZ) [1] [mm] | inhibition zone (IZ) [2] [mm] | inhibition zone (IZ) [3] [mm] | inhibition zone (IZ) [4] [mm] | inhibition zone (IZ) [5] | inhibition zone (IZ) [6] [mm] | MIC [7] [µg/mL] | MIC [8] [µg/mL] | MIC [9] [µg/mL] | MIC [10] [µg/mL] | MIC [11] [µg/mL] | MIC [12] [µg/mL] | inhibition zone (IZ) [13] [mm] | inhibition zone (IZ) [14] [mm] | inhibition zone (IZ) [15] [mm] | MIC [16] [µg/mL] | MIC [17] [µg/mL] | MIC [18] [µg/mL] | inhibition [19] | inhibition [20] | Structure (SMILES) | further results
18.9 | 17.6 | 16.3 | 17.1 | 13.4 mm | 19.8 | 7.8 (≈ 10.4 µM) | 7.8 (≈ 10.4 µM) | 31.2 (≈ 41.6 µM) | 7.81 (≈ 10.4 µM) | 125 (≈ 166 µM) | 7.81 (≈ 10.4 µM) | 17.2 | 15.9 | 18.3 | 15.6 (≈ 20.8 µM) | 31.2 (≈ 41.6 µM) | 31.2 (≈ 41.6 µM) | inactive | inactive | CCN/C(S[C@@H]1O[C@H](COC(C)=O)[C@H](OC(C)=O)[C@H](OC(C)=O)[C@H]1OC(C)=O)=C(/C#N)C(=O)Nc1ccc(S(=O)(=O)Nc2onc(C)c2C)cc1 | Ratio [21]: 1 to 3; Ratio [28]: 3; Ratio [29]: 1 to 3
26.7 | 28.6 | 25.6 | 23.4 | inactive | 23.2 | 1.95 (≈ 2.55 µM) | 0.98 (≈ 1.28 µM) | 3.9 (≈ 5.11 µM) | 3.9 (≈ 5.11 µM) | – | 0.49 (≈ 0.642 µM) | 26.1 | 24.4 | 23.2 | 0.98 (≈ 1.28 µM) | 1.95 (≈ 2.55 µM) | 0.49 (≈ 0.642 µM) | inactive | inactive | C=CCN/C(S[C@@H]1O[C@H](COC(C)=O)[C@@H](OC(C)=O)[C@H](OC(C)=O)[C@H]1OC(C)=O)=C(/C#N)C(=O)Nc1ccc(S(=O)(=O)Nc2onc(C)c2C)cc1 | Activity [25]: 15.2%; Ratio [26]: 2; Ratio [21]: 4 to 6; Ratio [28]: 4; Ratio [24]: 3 to 5
24.3 | 26.3 | 22.8 | 20.6 | 19.6 mm | 23.2 | 0.12 (≈ 0.267 µM) | 0.12 (≈ 0.267 µM) | 0.49 (≈ 1.09 µM) | 1.95 (≈ 4.34 µM) | 3.9 (≈ 8.68 µM) | 0.49 (≈ 1.09 µM) | 21.6 | 20.3 | 20.4 | 0.98 (≈ 2.18 µM) | 3.9 (≈ 8.68 µM) | 3.9 (≈ 8.68 µM) | inactive | inactive | CCN/C(SCC)=C(/C#N)C(=O)Nc1ccc(S(=O)(=O)Nc2onc(C)c2C)cc1 | Activity [25]: 8.5%; Ratio [26]: 2; Ratio [27]: 2
